In US8933106B2, “2-(4-substituted phenylamino) polysubstituted pyridine compounds as inhibitors of non-nucleoside HIV reverse transcriptase, preparation methods and uses thereof” (Institute of Pharmacology and Toxicology Academy of …, priority 2008, dated 2015):
≈ marks a conversion by molar mass, not a printed value.

What was measured:
[1] = Cytotoxicity test of the compound (MT-2 cells, XTT); format: cell-based; details: human, 4th day
Method: Please refer to the document (Jiang, S., et al. Antimicrob. Agents Chemother. 2004, 48, 4349-4359). In a 96-pore cell culture plate, 50 μl of different concentrations of compound solutions were respectively mixed with equal-volume of PBS, and incubated at 37° C. for 30 min, and then 100 μl MT-2 (or H9) cells (1×10^5/mL, RPIM 1640 culture medium containing 10% serum) was added, and mixed homogenously, followed by incubation at 37° C. overnight. On the second day, 150 μl of the supernatant was sucked out, and equal-volume of fresh culture medium was replenished, followed by further incubation at 37° C. for 3 days. On the 4th day, 50 μl of a XTT solution (1 mg/mL) containing PMS as freshly prepared was added. After 4 h, OD at 450 nm was tested. The 50% cytotoxicity concentration (CC50) of the compound was calculated using CalcuSyn software.

HIV-1IIIB virus strain = experiment: Anti-HIV activity test (MT-2 cell model), p24 antigen ELISA; format: cell-based; details: MT-2 cells; for EC50: Human immunodeficiency virus 1, MT2, HIV-1IIIB, 4th day, p24 antigen; for SI(CC50/EC50): ratio of toxicity CC50 value to activity EC50 value
Method: Please refer to the document (Jiang, S., et al. Antimicrob. Agents Chemother. 2004, 48, 4349-4359). In a 96-pore cell culture plate, 50 μl of different concentrations of compound solutions were respectively mixed with equal-volume of HIV-1IIIB virus strain (100 TCID50), and incubated at 37° C. for 30 min, and then 100 μl MT-2 cell (1×10^5/mL, RPIM 1640 culture medium containing 10% serum) was added, and mixed homogenously, followed by incubation at 37° C. overnight. On the second day, 150 μl of the supernatant was sucked out, and equal-volume of fresh culture medium was replenished, followed by further incubation at 37° C. for 3 days. On the 4th day, cytopathic effect (CPE) was recorded. Thereafter, 100 μl of culture supernatant was sucked out, virus particles were split using 5% Triton X-100, and p24 antigen therein was tested by using ELISA assay. Briefly, a ELISA plate was coated with HIVIG (2 μg/mL), and blocked with 1% fat-free milk, then a virus lysate was added therein, followed by incubation at 37° C. for 60 min. After fully washing the plate, anti-p24 monoclonal antibody-183-12H-5C, biotin-labeled goat antimouse antibody and […]-labeled horseradish peroxidase were added in sequence. Then, after developing with TMB, OD was tested at 450 nm. The 50% effective concentration (EC50) of the compound was calculated using CalcuSyn software.

SMILES | melting point [°C] | EC50 (HIV-1IIIB virus strain) [µg/mL] | CC50 at 4 days [1] [µg/mL] | SI(CC50/EC50) (HIV-1IIIB virus strain)
Cc1cc([N+](=O)[O-])cc(C)c1Oc1ccc([N+](=O)[O-])c(Nc2ccc(C#N)cc2)n1 | 250 to 252 | – | – | –
Cc1cc(C)c(Oc2ccc([N+](=O)[O-])c(Nc3ccc(C#N)cc3)n2)c(C)c1 [Compound I-3, 2-(4-cyanophenylamino)-6-(2,4,6-trimethylphenoxy)-3-nitropyridine] | – | 0.118 (≈ 0.315 µM) | 503 (≈ 1340 µM) | 4,264
Cc1cc(C=CC#N)cc(C)c1Oc1ccc([N+](=O)[O-])c(Nc2ccc(C#N)cc2)n1 [Compound I-5, 2-(4-cyanophenylamino)-6-(2,6-dimethyl-4-cyanovinylphenoxy)-3-nitropyridine] | – | 0.005 (≈ 0.0122 µM) | 24.8 (≈ 60.2 µM) | 4,956
Cc1cc(CO)cc(C)c1Oc1ccc([N+](=O)[O-])c(Nc2ccc(C#N)cc2)n1 [Compound I-8, 2-(4-cyanophenylamino)-6-(2,6-dimethyl-4-hydroxymethylphenoxy)-3-nitropyridine] | – | 0.075 (≈ 0.192 µM) | 45.2 (≈ 116 µM) | 602
Cc1cc(C=CC#N)cc(C)c1Oc1ccc(N)c(Nc2ccc(C#N)cc2)n1 [Compound I-10, 3-amino-2-(4-cyanophenylamino)-6-(2,6-dimethyl-4-cyanovinylphenoxy)pyridine] | – | 0.0042 (≈ 0.011 µM) | 27.9 (≈ 73.3 µM) | 6,656
C=CCc1cc(C)c(Oc2ccc(N)c(Nc3ccc(C#N)cc3)n2)c(C)c1 [Compound I-13, 3-amino-2-(4-cyanophenylamino)-6-(2,6-dimethyl-4-allylphenoxy)pyridine] | 150 to 152 | 0.09 (≈ 0.243 µM) | 2.13 (≈ 5.75 µM) | 24
Cc1cc(C(O)C[N+](=O)[O-])cc(C)c1Oc1ccc([N+](=O)[O-])c(Nc2ccc(C#N)cc2)n1 (stereo not shown) [Compound I-14, 2-(4-cyanophenylamino)-6-(2,6-dimethyl-4-(1-hydroxy-2-nitroethyl)phenoxy)-3-nitropyridine] | 230 to 234 | 0.77 (≈ 1.71 µM) | 12.2 (≈ 27 µM) | 16
Cc1cc(CNC2CC2)cc(C)c1Oc1ccc([N+](=O)[O-])c(Nc2ccc(C#N)cc2)n1 [Compound I-15, 2-(4-cyanophenylamino)-6-(2,6-dimethyl-4-(2-cyclopropylaminomethyl)phenoxy)-3-nitropyridine] | 175 to 177 | – | – | –
Cc1cc(I)cc(C)c1Oc1ccc([N+](=O)[O-])c(Nc2ccc(C#N)cc2)n1 [Compound I-16, 2-(4-cyanophenylamino)-6-(2,6-dimethyl-4-iodophenoxy)-3-nitropyridine] | 162 to 165 | 1.18 (≈ 2.43 µM) | 72.2 (≈ 148 µM) | 61
Cc1cc(C#CC(C)(C)O)cc(C)c1Oc1ccc([N+](=O)[O-])c(Nc2ccc(C#N)cc2)n1 [Compound I-18, 2-(4-cyanophenylamino)-6-(2,6-dimethyl-4-(3-methyl-3-hydroxy-1-butynyl)phenoxy)-3-nitropyridine] | 114 to 116 | – | – | –
Cc1cc(C#CC2CC2)cc(C)c1Oc1ccc([N+](=O)[O-])c(Nc2ccc(C#N)cc2)n1 [Compound I-20, 2-(4-cyanophenylamino)-6-(2,6-dimethyl-4-(cyclopropylethynyl)phenoxy)-3-nitropyridine] | 188 to 192 | – | – | –
Cc1cc(C#CC2CC2)cc(C)c1Oc1ccc(N)c(Nc2ccc(C#N)cc2)n1 [Compound I-21, 3-amino-2-(4-cyanophenylamino)-6-(2,6-dimethyl-4-(cyclopropylethynyl)phenoxy)pyridine] | 82 to 85 | – | – | –
C#Cc1cc(C)c(Oc2ccc(N)c(Nc3ccc(C#N)cc3)n2)c(C)c1 [Compound I-23, 3-amino-2-(4-cyanophenylamino)-6-(2,6-dimethyl-4-ethynylphenoxy)pyridine] | 79 to 82 | 0.15 (≈ 0.423 µM) | 2.92 (≈ 8.24 µM) | 19
N#Cc1ccc(Nc2nc(Oc3c(Br)cc(CO)cc3Br)ccc2[N+](=O)[O-])cc1 [Compound I-28, 2-(4-cyanophenylamino)-6-(2,6-dibromo-4-hydroxymethylphenoxy)-3-nitropyridine] | 209 to 213 | 0.253 (≈ 0.486 µM) | 36.3 (≈ 69.8 µM) | 145
N#Cc1ccc(Nc2nc(Oc3c(F)cccc3F)ccc2[N+](=O)[O-])cc1 [Compound I-29, 2-(4-cyanophenylamino)-6-(2,6-difluorophenoxy)-3-nitropyridine] | 234 to 236 | 15.9 (≈ 43.2 µM) | 39.7 (≈ 108 µM) | 2
N#CC=Cc1cc(Br)c(Oc2ccc([N+](=O)[O-])c(Nc3ccc(C#N)cc3)n2)c(Br)c1 [Compound I-30, 2-(4-cyanophenylamino)-6-(2,6-dibromo-4-cyanovinylphenoxy)-3-nitropyridine] | 223 to 226 | 0.045 (≈ 0.0832 µM) | 24.8 (≈ 45.8 µM) | 551

Now from value to compound, other results behind:

melting point [°C] | EC50 (HIV-1IIIB virus strain) [µg/mL] | SMILES | CC50 at 4 days [1] [µg/mL] | SI(CC50/EC50) (HIV-1IIIB virus strain)
– | 0.0005 (≈ 0.00141 µM) | Cc1cc(C#N)cc(C)c1Oc1ccc(N)c(Nc2ccc(C#N)cc2)n1 [Compound I-6, 3-amino-2-(4-cyanophenylamino)-6-(2,6-dimethyl-4-cyanophenoxy)pyridine] | 11.3 (≈ 31.7 µM) | 22,560
– | 0.109 (≈ 0.272 µM) | C=CCc1cc(C)c(Oc2ccc([N+](=O)[O-])c(Nc3ccc(C#N)cc3)n2)c(C)c1 [Compound I-9, 2-(4-cyanophenylamino)-6-(2,6-dimethyl-4-allylphenoxy)-3-nitropyridine] | > 100 | >917
190 to 193 | 0.021 (≈ 0.0513 µM) | Cc1cc(Br)cc(C)c1Oc1ccc(N)c(Nc2ccc(C#N)cc2)n1 [Compound I-12, 3-amino-2-(4-cyanophenylamino)-6-(2,6-dimethyl-4-bromophenoxy)pyridine] | 5.44 (≈ 13.3 µM) | 259
186 to 188 | 0.26 (≈ 0.676 µM) | C#Cc1cc(C)c(Oc2ccc([N+](=O)[O-])c(Nc3ccc(C#N)cc3)n2)c(C)c1 [Compound I-22, 2-(4-cyanophenylamino)-6-(2,6-dimethyl-4-ethynylphenoxy)-3-nitropyridine] | 66.7 (≈ 173 µM) | 256
195 to 198 | – | Cc1cc(N)cc(C)c1Oc1ccc(N)c(Nc2ccc(C#N)cc2)n1 [Compound I-24, 3-amino-2-(4-cyanophenylamino)-6-(2,6-dimethyl-4-aminophenoxy)pyridine] | – | –
– | 0.036 (≈ 0.0789 µM) | Cc1cc(I)cc(C)c1Oc1ccc(N)c(Nc2ccc(C#N)cc2)n1 [Compound I-25, 3-amino-2-(4-cyanophenylamino)-6-(2,6-dimethyl-4-iodophenoxy)pyridine] | 10.7 (≈ 23.5 µM) | 298
188 to 191 | 0.179 (≈ 0.315 µM) | N#Cc1ccc(Nc2nc(Oc3c(Br)cc(Br)cc3Br)ccc2[N+](=O)[O-])cc1 [Compound I-26, 2-(4-cyanophenylamino)-6-(2,4,6-tribromophenoxy)-3-nitropyridine] | 27 (≈ 47.4 µM) | 151
218 to 220 | 0.152 (≈ 0.293 µM) | N#Cc1ccc(Nc2nc(Oc3c(Br)cc(C=O)cc3Br)ccc2[N+](=O)[O-])cc1 [Compound I-27, 2-(4-cyanophenylamino)-6-(2,6-dibromo-4-formylphenoxy)-3-nitropyridine] | 0.78 (≈ 1.51 µM) | –
